Results on one compound are retold here after patent US6958344B2, “Pyrimidine compounds and their use as modulators of chemokine receptor activity” (AstraZeneca AB, priority 2000, dated 2005).

Usually melting point stands for the temperature of the solid-liquid transition. In the case of `C[C@H](CO)Nc1nc(SCc2ccccc2F)nc2[nH]c(N)nc12` [Example 4, (2R)-2-[[8-amino-2-[[(2-fluorophenyl)methyl]thio]-9H-purin-6-yl]amino]-1-propanol], the melting point was 250 to 255 °C (dec.).
